Measurements reported in article PMC10223884, “Oligosaccharide Ligands of Galectin-4 and Its Subunits: Multivalency Scores Highly” (Molecules, 2023).

Columns and labels:
Gal-4 = target: T1, Gal-4 (Homo sapiens, UniProt P56470); test: competitive ELISA, inhibition of binding of whole Gal-4 to immobilized ASF; settings: for IC50: competitive ELISA, Gal-4 2.5 µM, immobilized ASF; for rp, relative potency (IC50 (lactose)/IC50 (ligand)): whole Gal-4
T1 construct: made in house; host or cells: Escherichia coli Rosetta (DE3) pLysS
T1 sequence (P56470 1-323): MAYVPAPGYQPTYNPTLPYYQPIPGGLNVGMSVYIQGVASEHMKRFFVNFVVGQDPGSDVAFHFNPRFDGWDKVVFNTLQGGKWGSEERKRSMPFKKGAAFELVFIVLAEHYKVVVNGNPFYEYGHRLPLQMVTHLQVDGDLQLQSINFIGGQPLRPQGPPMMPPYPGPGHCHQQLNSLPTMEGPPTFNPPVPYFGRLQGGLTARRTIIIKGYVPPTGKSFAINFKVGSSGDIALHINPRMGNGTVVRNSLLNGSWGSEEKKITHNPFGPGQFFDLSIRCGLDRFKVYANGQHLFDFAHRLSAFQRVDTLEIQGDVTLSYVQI
Method: (§1) To design the ELISA method, we first examined the direct binding of the whole Gal-4, Gal-4NL, and Gal-4-CL to standard glycoprotein asialofetuin (ASF, MW 48.4 kDa), which carries up to nine LacNAc epitopes. The ASF was immobilized by hydrophobic interaction in microtiter-plate wells, and the binding of increasing concentrations of Gal-4 proteins was quantified by colorimetric immunodetection using horseradish peroxidase conjugated to an anti-His-tag antibody. The apparent dissociation constants (KD) were calculated from the non-linear regression of the binding curves (Figure 3). […] While for the Gal-4 ELISA measurement we used the concentration of Gal-4 of 2.5 μM, for both subunits, it was 25 μM. […] The Gal-4 proteins were incubated with increasing concentrations of the respective inhibitors, and the concentration-dependent inhibition of the binding to the immobilized ASF was quantified using spectrophotometric colorimetric immunodetection (HRP-conjugated anti-His-tag antibody). The respective half-maximal inhibition constants (IC50) were calculated from the non-linear regression of the sigmoidal curves (Figure 3), and they are shown in Table 2 and Table 3.
(§2) Each incubation step was followed by washing the wells with 3 × 250 µL phosphate-buffered saline (PBS) containing 0.05% Tween® 20. In total, 0.1 µM ASF in PBS (50 µL/well) was coated onto microtiter plates (Nunc Immuno Sorb, ThermoFisher Scientific, Waltham, MA, USA) overnight. After blocking the wells with 2 mg/mL bovine serum albumin (BSA) in PBS buffer (250 µL/well, 1 h), serial dilutions of the inhibitors in PBS buffer containing 2 mM EDTA (EPBS) were incubated with Gal-4 (2.5 µM final dimer concentration) or its subunits, Gal-4CL and Gal-4NL (25 µM final monomer concentration) for 2 h (50 µL/well). The residual bound galectin was labeled with an anti-His-antibody conjugated with horseradish peroxidase (HRP) (Santa Cruz Biotechnology, Heidelberg, Germany; 1:999 dilution in PBS). The colorimetric reaction with TMB One substrate solution (Kem-En-Tec, Taastrup, Denmark; 50 µL/well) was stopped with 3 M hydrochloric acid (HCl) (50 µL/well) and quantified spectrophotometrically at 450 nm (Sunrise; Tecan Group Ltd., Männedorf, Switzerland). The values of half-maximal inhibitory concentrations (IC50) were calculated by non-linear regression (dose–response inhibition-variable slope) of sigmoidal curves from a minimum of three independent experiments using GraphPad Prism 8.4.3 (GraphPad Software, San Diego, CA, USA).

Gal-4NL = target: T2, Gal-4NL (Homo sapiens, UniProt P56470); test: competitive ELISA, inhibition of binding of Gal-4NL subunit to immobilized ASF; settings: for IC50: competitive ELISA, Gal-4NL 25 µM, immobilized ASF
T2 construct: designated as Gal-4NL (aa 1-160), and Gal-4CL (aa 169-323), respectively; made in house; host or cells: E. coli Rosetta (DE3) pLysS
T2 sequence (P56470 1-160): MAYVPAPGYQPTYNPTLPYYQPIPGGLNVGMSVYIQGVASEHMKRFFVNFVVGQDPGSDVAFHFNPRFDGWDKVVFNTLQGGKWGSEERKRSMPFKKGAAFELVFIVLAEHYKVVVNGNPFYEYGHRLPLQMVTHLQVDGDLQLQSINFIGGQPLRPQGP
Method: as §1, §2

Gal-4CL = target: T3, Gal-4CL (Homo sapiens, UniProt P56470); test: competitive ELISA, inhibition of binding of Gal-4CL subunit to immobilized ASF; settings: for IC50: competitive ELISA, Gal-4CL 25 µM, immobilized ASF
T3 construct: designated as Gal-4NL (aa 1-160), and Gal-4CL (aa 169-323), respectively; made in house; host or cells: E. coli Rosetta (DE3) pLysS
T3 sequence (P56470 169-323): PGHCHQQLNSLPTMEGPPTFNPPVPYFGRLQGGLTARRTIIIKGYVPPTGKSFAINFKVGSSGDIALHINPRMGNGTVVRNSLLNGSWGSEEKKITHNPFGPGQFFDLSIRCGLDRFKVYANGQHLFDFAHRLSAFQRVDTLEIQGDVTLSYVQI
Method: as §1, §2

Structure (SMILES)	IC50 (Gal-4) [µM]	rp, relative potency (IC50 (lactose)/IC50 (ligand)) (Gal-4)	rp Gal-4NL, relative potency (IC50 (lactose)/IC50 (ligand)) (Gal-4NL)	IC50 (Gal-4NL) [µM]	rp Gal-4CL, relative potency (IC50 (lactose)/IC50 (ligand)) (Gal-4CL)	IC50 (Gal-4CL) [µM]
CC(C)(C)OC(=O)NCCNC(=S)N[C@@H]1O[C@H](CO)[C@@H](O[C@@H]2O[C@H](CO)[C@H](O)[C@H](O)[C@H]2O)[C@H](O)[C@H]1O [lactosyl-tBoc 10]	2500	–	–	–	–	–
CC(=O)N[C@H]1C(O)O[C@H](CO)[C@H](O)[C@@H]1O[C@@H]1O[C@H](CO)[C@H](O)[C@H](O)[C@H]1O (stereo partly drawn) [TF antigen motif (9), β-D-galactopyranosyl-(1→3)-2-acetamido-2-deoxy-D-galactopyranose]	1180 ± 50	2.1	0.8	3500 ± 200	1.5	5800 ± 500
C[C@@H]1O[C@@H](O[C@H]2[C@H](O[C@H]3[C@H](O)[C@@H](O)C(O)O[C@@H]3CO)O[C@H](CO)[C@H](O)[C@@H]2O)[C@@H](O)[C@H](O)[C@@H]1O (stereo partly shown) [2′-fucosyllactose (2), 2′-fucosyllactose]	1500 ± 200	1.7	4.8	600 ± 60	7.8	1100 ± 100
OC[C@H]1O[C@@H](O[C@H]2[C@H](O)[C@@H](O)[C@H](O)O[C@@H]2CO)[C@H](O)[C@@H](O)[C@H]1O [lactose (1), lactose]	2500 ± 200	1.0	1.0	2900 ± 400	1.0	8600 ± 1100
CC(=O)N[C@H]1[C@H](O[C@H]2[C@@H](O)[C@@H](CO)O[C@@H](O[C@H]3[C@H](O)[C@@H](O)C(O)O[C@@H]3CO)[C@@H]2O)O[C@H](CO)[C@@H](O)[C@@H]1O[C@@H]1O[C@H](CO)[C@H](O)[C@H](O)[C@H]1O (stereo partly shown) [lacto-N-tetraose (3), lacto-N-tetraose]	430 ± 70	5.9	14	210 ± 30	18.3	470 ± 900
CC(=O)N[C@H]1[C@H](O[C@H]2[C@@H](O)[C@@H](CO)O[C@@H](O[C@H]3[C@H](O)[C@@H](O)C(O)O[C@@H]3CO)[C@@H]2O)O[C@H](CO)[C@@H](O[C@@H]2O[C@H](CO)[C@H](O)[C@H](O)[C@H]2O)[C@@H]1O (stereo partly shown) [lacto-N-neotetraose (4), lacto-N-neotetraose]	600 ± 100	4.1	7.3	400 ± 100	10	800 ± 300
